In brackets after ≈: the same amount, converted by molar mass. Read-outs that look alike come from different tables or passages of the source. One block for each compound: values may come before it.
Assays:
DPPH antioxidant test = format: biochemical; conditions: 517 nm
Protocol: The antioxidant activity evaluation was performed through DPPH test.
Extract flower ethanol samples and PV6.7 were dissolved in methanol in concentrations of 1 mg.mL-1, 500 μg, mL-1, 250 μg, mL-1, 125 μg, mL-1, 62.5 μg, mL-1 and 31.25 μg, mL-1. As control Metabissulfito and Rutin were used in the same conditions of the samples.
Around 0.002 g of DPPH was dissolved in 50 mL of methanol. Then, it was verified the solution absorbance in spectrophotometer, in 517 nm, which must be below 1.
In a plastic Eppendorf, it was added 950 μL of methanolic solution of DPPH and 50 μL of the sample. As white, it was used in the place of the sample 50 μL of methanol. The samples were then incubated for 15 minutes at 30° C. After this period, the solutions were transferred to cuvettes and performed the readings at 517 nm, zeroing the spectrophotometer with methanol.
% inhibition=B−A/B×100, being A=sample, and B=White

[1] = system: Candida albicans ATCC 10231; test: MIC/CFM by microdilution (CLSI M27-A2); format: cell-based
[2] = system: Candida tropicalis USP 1658; test: MIC by microdilution (CLSI M27-A2); format: cell-based; set-up: key: —: There was no growth inhibition
[3] = system: Candida parapsilosis ATCC 22019; test: MIC/CFM by microdilution (CLSI M27-A2); format: cell-based
[4] = system: Candida parapsilosis USP 1933; test: MIC/CFM by microdilution (CLSI M27-A2); format: cell-based; set-up: key to MIC: —: There was no growth inhibition
[5] = system: Candida albicans USP 1565; test: MIC by microdilution (CLSI M27-A2); format: cell-based; set-up: key: —: There was no growth inhibition
[6] = system: Candida guilhermondii USP; test: MIC/CFM by microdilution (CLSI M27-A2); format: cell-based; set-up: key to MIC: —: There was no growth inhibition
Candida krusei ATCC 6258 = test: MIC/CFM by microdilution (CLSI M27-A2); format: cell-based; set-up: key to MIC: —: There was no growth inhibition
Candida krusei USP 2223 = test: MIC by microdilution (CLSI M27-A2); format: cell-based; set-up: key: —: There was no growth inhibition
[7] = system: Candida albicans OF-M3-20; test: MIC/CFM by microdilution (CLSI M27-A2); format: cell-based
Protocol: (§1) Pure substances termed P1 and P2 previously dissolved in 20% DMSO, were diluted in RPMI medium, with final concentrations of 96 μg.mL-1. […] The same was also tested individually, diluted in RPMI medium, with initial concentration of 1 μL.mL-1. […] Cultures of Candida sp. were prepared and standardized in […] saline solution at 0.85%. For inoculums standardization, a spectrophotometer equipment was used, with wavelength at 530 nm and absorbance adjustment between 0.130 and 0.150, having as white the saline solution free of inoculum or any other contaminant, corresponding to concentrations of 10^6 CFU/mL. In this condition the inoculum “mother” was diluted 50 times and from this inoculum “child” the dilution was performed 20 times to obtain a standard inoculum in 10^3 cells per well. […] To aid in the growth view, were added to the wells dye 50 μL 2,3,5-triphenyltetrazolium chloride (TTC) at 5 mg.mL “1, being performed the readings after 4 hours of incubation. Prior to the addition of dye, aliquots of 96-well plate were transferred to Petri with Agar-Sabouraud Dextrose to determine the Minimum Fungicidal Concentration. Plates were incubated for 24 hours at 35° C.

[8] = system: Candida albicans OF-M7-19; test: MIC/CFM by microdilution (CLSI M27-A2); format: cell-based
Protocol: as §1

Candida albicans USP 1 = test: MIC/CFM by microdilution (CLSI M27-A2); format: cell-based
Protocol: as §1

[9] = system: Microsporum canis ATCC 32903; test: MIC by microdilution, filamentous fungi (CLSI M38-A); format: cell-based; conditions: Table 13, Microsporum canis ATCC 32903, 7 days, 28° C.
Protocol: (§2) Pure substances termed P1 and P2 previously dissolved in 20% DMSO, were diluted in RPMI medium, with final concentrations of 96 μg.mL-1. […] Cultures of filamentous fungi described below were inoculated in Agar-Batata Dextrose medium and inoculated for 7 days, at 28° C. Colonies of cultures inoculated for 7 days in an oven at 28° C. were shrouded with 0.85% saline solution, scraped and then transferred to conical tubes. After resting for 5 minutes, the supernatant was transferred to new conical tubes for subsequent quantification in spectrophotometer, at 530 nm, with the transmittance adjustment of 80-82% for A. niger and 70% for other microorganisms. After adjustment, there was a 1:50 dilution in RPM. The determination of Minimum Inhibitory Concentration was performed after 7 days, at 28° C. After the incubation period, aliquots of 96-well plates were transferred to Petri plates with Potato Dextrose Agar, to determine the Minimum Fungicidal Concentration. Plates were inoculated for more 7 days, at 28° C.

[10] = system: Phomopsis longicolla (soy isolate); test: as above; format: cell-based; conditions: Table 13, Phomopsis longicolla- soy, 7 days, 28° C.
Protocol: as §2

[11] = system: Trichophyton menthagrophyton ATCC 9533; test: as above; format: cell-based; conditions: Table 13, Trichophyton menthagrophyton ATCC 9533, 7 days, 28° C.
Protocol: as §2

[12] = system: Candida tropicalis USP B3; test: MIC by microdilution (CLSI M27-A2); format: cell-based; set-up: key: —: There was no growth inhibition
[13] = system: Trichophyton rubrum ATCC MYA-3108; test: MIC by microdilution, filamentous fungi (CLSI M38-A); format: cell-based; conditions: Table 11, Trichophyton rubrum ATCC MYA-3108
C. Albicans USP 2 = test: MIC/CFM against Candida sp. strains; format: cell-based; conditions: Table 14, C. Albicans USP 2
Candida glabrata ATCC = test: MIC/CFM against Candida sp. strains; format: cell-based; conditions: Nakaseomyces glabratus; Table 14, Candida glabrata ATCC
[14] = Table 11, C. Tropicalis USP 1658
[15] = Table 11, C. parapsilosis USP 1933

Compound: O=S([O-])S(=O)(=O)[O-].[Na+].[Na+] [Metabissulfito]
Antioxidant Activity Percentage (DPPH antioxidant test; sample 31.25 μg · mL^−1, 15 minutes at 30° C.): 0% | Antioxidant Activity Percentage (DPPH antioxidant test; sample 62.5 μg · mL^−1, 15 minutes at 30° C.): 0% | Antioxidant Activity Percentage (DPPH antioxidant test; sample 125 μg · mL^−1, 15 minutes at 30° C.): 1.33% | Antioxidant Activity Percentage (DPPH antioxidant test; sample 250 μg · mL^−1, 15 minutes at 30° C.): 4.62% | Antioxidant Activity Percentage (DPPH antioxidant test; sample 500 μg · mL^−1, 15 minutes at 30° C.): 8.63% | Antioxidant Activity Percentage (DPPH antioxidant test; sample 1 mg · mL^−1, 15 minutes at 30° C.): 15.3%

Compound: CC(=O)N1CCN(c2ccc(OCC3COC(Cn4ccnc4)(c4ccc(Cl)cc4Cl)O3)cc2)CC1 (stereo not drawn) [Cetoconazol]
MIC ([1]; Table 12, C. albicans ATCC 10231, 48 h, 35° C.): 32 µg/mL (≈ 60.2 µM) | MIC ([2]; Table 12, C. tropicalis USP 1658, 48 h, 35° C.): *<4 μg · mL^−1 | MIC ([3]; Table 12, C. parapsilosis ATCC 22019, 48 h, 35° C.): <0.125 µg/mL | MIC ([4]; Table 12, C. parapsilosis USP 1933, 48 h, 35° C.): <0.125 µg/mL | MIC ([5]; Table 12, C. albicans USP 1565, 48 h, 35° C.): <0.125 µg/mL | MIC ([6]; Table 12, C. guilhermondii USP, 48 h, 35° C.): 0.125 µg/mL (≈ 0.235 µM) | MIC (Candida krusei ATCC 6258; Table 12, C. krusei ATCC 6258, 48 h, 35° C.): <0.125 µg/mL | MIC (Candida krusei USP 2223; Table 12, C. krusei USP 2223, 48 h, 35° C.): 2 µg/mL (≈ 3.76 µM) | MIC ([7]; Table 12, C. albicans OF M3-20, 48 h, 35° C.): <0.125 µg/mL | MIC ([8]; Table 12, C. albicans OF M7-19, 48 h, 35° C.): <0.125 µg/mL | MIC (Candida albicans USP 1; Table 12, C. albicans USP 1, 48 h, 35° C.): <0.125 µg/mL | MIC [9]: 4 µg/mL (≈ 7.53 µM) | MIC [10]: <0.125 µg/mL | MIC [11]: 2 µg/mL (≈ 3.76 µM)

Compound: OC(Cn1cncn1)(Cn1cncn1)c1ccc(F)cc1F [Fluconazol]
MIC ([12]; Candida tropicalis, USPB3, Table 11, C. Tropicalis USP B3, read-out: MIC): 1 µg/mL (≈ 3.27 µM) | MIC ([2]; Candida tropicalis, USP1658, Table 11, C. Tropicalis USP 1658, read-out: MIC): < 1 µg/mL | MIC ([4]; Lodderomyces parapsilosis, USP1933, Table 11, C. parapsilosis USP 1933, read-out: MIC): < 1 µg/mL | MIC ([5]; Candida albicans, USP1565, Table 11, C. Albicans USP 1565, read-out: MIC): < 1 µg/mL | MIC ([6]; Candida, Table 11, C. guilhermondii USP, read-out: MIC): < 1 µg/mL | MIC (Candida krusei ATCC 6258; Pichia kudriavzevii, ATCC6258, Table 11, C. krusei ATCC 6258, read-out: MIC): 8 µg/mL (≈ 26.1 µM) | MIC (Candida krusei USP 2223; Pichia kudriavzevii, ATCC2223, Table 11, C. krusei ATCC 2223, read-out: MIC): 64 µg/mL (≈ 209 µM) | MIC ([13]; read-out: MIC): 16 µg/mL (≈ 52.2 µM)

Compound: C[C@@H]1[C@H](O)[C@@H](C)/C=C/C=C/C=C/C=C/C=C/C=C/C=C/[C@H](O[C@@H]2O[C@H](C)[C@@H](O)[C@H](N)[C@@H]2O)C[C@@H]2O[C@](O)(C[C@@H](O)C[C@@H](O)[C@H](O)CC[C@@H](O)C[C@@H](O)CC(=O)O[C@H]1C)C[C@H](O)[C@H]2C(=O)O [AnfotericinaB, Anfotericina B]
MIC ([12]; Table 11, C. Tropicalis USP B3): 2 µg/mL (≈ 2.16 µM) | MIC [2, 14]: 1 µg/mL (≈ 1.08 µM) | MIC [4, 15]: 2 µg/mL (≈ 2.16 µM) | MIC ([5]; Table 11, C. Albicans USP 1565): 1 µg/mL (≈ 1.08 µM) | MIC ([6]; Table 11, C. guilhermondii USP): 2 µg/mL (≈ 2.16 µM) | MIC (Candida krusei ATCC 6258; Table 11, C. krusei ATCC 6258): 1 µg/mL (≈ 1.08 µM) | MIC [13]: 1 µg/mL (≈ 1.08 µM) | MIC [9]: 1.56 µg/mL (≈ 1.69 µM) | MIC [10]: 0.5 µg/mL (≈ 0.541 µM) | MIC [11]: 4 µg/mL (≈ 4.33 µM)

The next lines start with results.

MIC ([12]; Table 11, C. Tropicalis USP B3): — | MIC [2, 14]: — | MIC [4, 15]: — | MIC ([5]; Table 11, C. Albicans USP 1565): — | MIC ([6]; Table 11, C. guilhermondii USP): — | MIC (Candida krusei ATCC 6258; Table 11, C. krusei ATCC 6258): — | MIC (Candida krusei USP 2223; Table 11, C. krusei ATCC 2223): — | MIC ([13]; read-out: MIC): 0.25 µg/mL (≈ 0.858 µM)
Compound: CN(C/C=C/C#CC(C)(C)C)Cc1cccc2ccccc12 [Terbinafina ®, Terbinafina]

MIC ([1]; Candida albicans, ATCC10231, Table 14, C. Albicans ATCC 10231, read-out: MIC): 3 µg/mL (≈ 4.8 µM) | MIC ([12]; Candida tropicalis, USPB3, Table 14, C. Tropicalis UPS B3, read-out: MIC): 6 µg/mL (≈ 9.61 µM) | MIC ([3]; Lodderomyces parapsilosis, ATCC22019, Table 14, C. parapsilosis ATCC 22019, read-out: MIC): 1.5 µg/mL (≈ 2.4 µM) | MIC ([4]; Lodderomyces parapsilosis, USP1933, Table 14, C. parapsilosis USP 1933 ATCC, read-out: MIC): 3 µg/mL (≈ 4.8 µM) | MIC ([6]; Table 14, Candida guilhermondi USPATCC, read-out: MIC): 1.5 µg/mL (≈ 2.4 µM) | MIC (Candida krusei ATCC 6258; Pichia kudriavzevii, ATCC6258, Table 14, C. krusei ATCC, read-out: MIC): 1.5 µg/mL (≈ 2.4 µM) | MIC (Candida krusei USP 2223; Pichia kudriavzevii, USP2223, Table 14, C. krusei USP 2223, read-out: MIC): 1.5 µg/mL (≈ 2.4 µM) | MIC ([7]; Candida albicans, OFM320, Table 14, C. Albicans OF M3-20, read-out: MIC): 3 µg/mL (≈ 4.8 µM) | MIC ([8]; Candida albicans, OFM719, Table 14, C. Albicans OF M7-19, read-out: MIC): 0.75 µg/mL (≈ 1.2 µM) | MIC (Candida albicans USP 1; Candida albicans, USP1, Table 14, C. Albicans USP 1, read-out: MIC): 1.5 µg/mL (≈ 2.4 µM) | MIC (C. Albicans USP 2): 3 µg/mL (≈ 4.8 µM) | MIC (Candida glabrata ATCC): 0.375 µg/mL (≈ 0.6 µM)
Compound: CC1OC(OC2C(O)C(COC(=O)/C=C/c3ccc(O)c(O)c3)OC(OCCc3ccc(O)c(O)c3)C2O)C(O)C(O)C1O (stereo not drawn) [Fraction P3, iso-verbascoside]
MFC ([6]; Table 14, Candida guilhermondi USPATCC, read-out: CFM (Minimum Fungicidal Concentration)): 6 µg/mL (≈ 9.61 µM) | MFC (Candida krusei ATCC 6258; Pichia kudriavzevii, ATCC6258, Table 14, C. krusei ATCC, read-out: CFM (Minimum Fungicidal Concentration)): 12 µg/mL (≈ 19.2 µM)
